The text below walks through data of patent US5686486A, “4-hydroxy-benzopyran-2-ones and 4-hydroxy-cycloalkyl[b]pyran-2-ones useful to treat retroviral infections” (priority 1995, dated 1997).

Like-named read-outs stand apart in the source and are kept apart here.

This test deals with HIV-1 protease (Human immunodeficiency virus type 1 group M subtype B, UniProt P04585). Kind of test: biochemical. In outline: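 Percent inhibition derived from fluorescent cleavage product separated by filtration after streptavidin-bead capture of intact biotin/FITC substrate. Reaction: enzyme (10 μl, 0.1 μM stock) with substrate (20 μl, 0.2 μM stock) and compound, 1 h at room temperature in dark, pH 5.5 acetate buffer with 1.0 M NaCl and 0.05% NP-40.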

Setting [1] is: dose 1.100 uM, read-out: HIV-1 Protease % Inhib.
The mark [2] stands for this setting: dose 3.300 uM, read-out: HIV-1 Protease % Inhib.
The mark [3] stands for this setting: dose 10.000 uM, read-out: HIV-1 Protease % Inhib.
Where [4] appears, read: dose 30.000 uM, read-out: HIV-1 Protease % Inhib.
[5] abbreviates: read-out: HIV-1 Protease % Inhib, dose 0.123 uM.
[6] abbreviates: read-out: HIV-1 Protease % Inhib, dose 0.370 uM.
[7] abbreviates: read-out: HIV-1 Protease % Inhib, dose 1.100 uM.
Setting [8] is: read-out: HIV-1 Protease % Inhib, dose 3.300 uM.
The mark [9] stands for this setting: read-out: HIV-1 Protease % Inhib, dose 10.000 uM.
The mark [10] stands for this setting: read-out: HIV-1 Protease % Inhib, dose 30.000 uM.
The mark [11] stands for this setting: dose 0.370 uM, read-out: HIV-1 Protease % Inhib.

Regarding `C=CS(=O)(=O)Nc1cccc(C(c2c(O)c3c(oc2=O)CCCCC3)C2CC2)c1` (centres unmarked) [Example 363, N-[3-[Cyclopropyl(2,5,6,7,8,9-hexahydro-4-hydroxy-2-oxocyclohepta[b]pyran-3-yl)methyl]phenyl]-ethenesulfonamide], under setting [1], the inhibition at 1.1 µM was 21.5%. In addition, under setting [2], the inhibition at 3.3 µM amounted to 58.8%. Besides, the inhibition at 10 µM under setting [3] is 84.8%. Besides, under setting [4], the inhibition at 30 µM was 107%.

As for `CCS(=O)(=O)Nc1cccc(C(c2c(O)c3c(oc2=O)CCCCC3)C2CC2)c1` (centres unmarked) [Example 365, N-[3-[Cyclopropyl(2,5,6,7,8,9-hexahydro-4-hydroxy-2-oxocyclohepta[b]pyran-3-yl)methyl]phenyl]-ethanesulfonamide], under setting [5], the inhibition at 0.123 µM was 11.7%. Further, under setting [6], the inhibition at 0.37 µM was 31.1%. In addition, the inhibition at 1.1 µM under setting [7] amounted to 65.3%. The inhibition at 3.3 µM under setting [8] is 84.1%. Also, under setting [9], the inhibition at 10 µM stood at 94.5%. Moreover, the inhibition at 30 µM under setting [10] worked out at 95.8%.

For the molecule `O=c1oc2c(c(O)c1C(c1cccc(N3CCCS3(=O)=O)c1)C1CC1)CCCCCC2` [Example 365B (First Title Compound), 2H-Cycloocta[b]pyran-2-one, 3-[cyclopropyl[3-(2-isothiazolidinyl)phenyl]methyl]-5,6,7,8,9,10-hexahydro-4-hydroxy-,S,S-dioxide], the inhibition at 10 µM under setting [3] was determined as 83.8%. The inhibition at 30 µM under setting [4] worked out at 78.8%.

`O=c1oc2c(c(O)c1C(c1cccc(NS(=O)(=O)CCCN3CCOCC3)c1)C1CC1)CCCCCC2` (centres unmarked) [Example 365B (Second Title Compound), N-[3-[Cyclopropyl(5,6,7,8,9,10-hexahydro-4-hydroxy-2-oxo-2H-cycloocta[b]pyran-3-yl)methyl]phenyl]-4-morpholinepropanesulfonamide]: under “dose 0.123 uM, read-out: HIV-1 Protease % Inhib”, the inhibition at 0.123 µM came to 33.2%. For the same molecule, the inhibition at 0.37 µM under setting [11] worked out at 68.2%. The inhibition at 1.1 µM under setting [1] stood at 94%. For the same molecule, the inhibition at 3.3 µM under setting [2] was found to be 87.3%. Under setting [3], the inhibition at 10 µM amounted to 92.6%. Moreover, the inhibition at 30 µM under setting [4] amounted to 89.1%.

For the molecule `O=c1oc2c(c(O)c1C(c1cccc(NC(=S)Nc3ccccc3)c1)C1CC1)CCCCCC2` (centres unmarked) [Example 366, Thiourea, N-[3-[cyclopropyl(5,6,7,8,9,10-hexahydro-4-hydroxy-2-oxo-2H-cycloocta[b]pyran-3-yl)methyl]phenyl]-N'-phenyl-], under setting [1], the inhibition at 1.1 µM was 40.3%. Further, under setting [2], the inhibition at 3.3 µM was found to be 72.9%. The inhibition at 10 µM under setting [3] turned out to be 92.2%. In addition, the inhibition at 30 µM under setting [4] is 107%.

As for `CCNC(=S)Nc1cccc(C(c2c(O)c3c(oc2=O)CCCCCC3)C2CC2)c1` (centres unmarked) [Example 367, Thiourea, N-[3-[cyclopropyl(5,6,7,8,9,10-hexahydro-4-hydroxy-2-oxo-2H-cycloocta[b]pyran-3-yl)methyl]phenyl]-N'-ethyl-], the inhibition at 1.1 µM under setting [1] amounted to 23.7%. The inhibition at 3.3 µM under setting [2] was found to be 58.5%. Further, the inhibition at 10 µM under setting [3] came to 86.1%. In addition, the inhibition at 30 µM under setting [4] came out at 102%.

As for `O=c1oc2c(c(O)c1C(c1cccc(NC(=S)Cc3ccccc3)c1)C1CC1)CCCCCC2` (centres unmarked) [Example 368, Benzeneethanethioamide, N-[3-[cyclopropyl(5,6,7,8,9,10-hexahydro-4-hydroxy-2-oxo-2H-cycloocta[b]pyran-3-yl)methyl]phenyl]-], the inhibition at 1.1 µM under setting [1] turned out to be 17.4%. Under setting [2], the inhibition at 3.3 µM was determined as 54.5%. For the same molecule, the inhibition at 10 µM under setting [3] was determined as 77.8%. Further, under setting [4], the inhibition at 30 µM was 86.8%.

With `CC(C)C(c1cccc(NC(=O)OCc2ccccc2)c1)c1c(O)c2c(oc1=O)CCCCCC2` (centres unmarked) [Example 370, [3-[1-(5,6,7,8,9,10-Hexahydro-4-hydroxy-2-oxo-2H-cycloocta[b]pyran-3-yl)-2-methylpropyl]phenyl]-carbamic acid, phenylmethyl ester], the inhibition at 10 µM under setting [3] was determined as 19.4%. Also, the inhibition at 30 µM under setting [4] was 33.1%.

Consider `CC(C)C(c1cccc(NS(=O)(=O)c2ccc(C#N)cc2)c1)c1c(O)c2c(oc1=O)CCCCCC2` (centres unmarked) [Example 372, 4-Cyano-N-[3-[1-(6,7,8,9,10-hexahydro-4-hydroxy-2-oxo-2H-cycloocta[b]pyran-3-yl)-2-methylpropyl]phenyl]-benzenesulfonamide], for which the inhibition at 0.123 µM under setting [5] amounted to 65.3%. Further, under setting [6], the inhibition at 0.37 µM turned out to be 91.3%. In addition, the inhibition at 1.1 µM under setting [7] was determined as 105%. Further, the inhibition at 3.3 µM under setting [8] worked out at 108%. Also, under setting [9], the inhibition at 10 µM is 109%. Besides, under setting [10], the inhibition at 30 µM is 106%.

Turning to `CCCC(c1cccc(NC(=O)OCc2ccccc2)c1)c1c(O)c2c(oc1=O)CCCCCC2` (centres unmarked) [Example 375, [3-[1-(5,6,7,8,9,10-Hexahydro-4-hydroxy-2-oxo-2H-cycloocta[b]pyran-3-yl)butyl]phenyl]-carbamic acid, phenylmethyl ester], the inhibition at 0.37 µM under setting [11] came out at 10.2%. In addition, under setting [1], the inhibition at 1.1 µM was found to be 28.5%. Under setting [2], the inhibition at 3.3 µM amounted to 57.4%. Besides, the inhibition at 10 µM under setting [3] was 79%. Further, under setting [4], the inhibition at 30 µM came to 86%.

Regarding `O=c1oc2c(c(O)c1C(c1ccc(CO)o1)C1CC1)CCCCCC2` (centres unmarked) [Example 383], the inhibition at 1.1 µM under setting [1] amounted to 28.9%. Further, the inhibition at 3.3 µM under setting [2] came to 73%. Also, the inhibition at 10 µM under setting [3] was 90.2%. In addition, the inhibition at 30 µM under setting [4] is 94.6%.

Take `COCOCc1ccc(C(c2c(O)c3c(oc2=O)CCCCCC3)C2CC2)o1` (centres unmarked) [Example 386]: the inhibition at 1.1 µM under setting [1] is 14.3%. Further, the inhibition at 3.3 µM under setting [2] is 35.4%. Further, under setting [3], the inhibition at 10 µM was 64.5%. The inhibition at 30 µM under setting [4] was 96.3%.

For `O=c1oc2c(c(O)c1C(c1ccc(CNS(=O)(=O)c3ccc(F)cc3)o1)C1CC1)CCCCCC2` (centres unmarked) [Example 390], the inhibition at 1.1 µM under setting [1] came to 13.1%. Besides, the inhibition at 3.3 µM under setting [2] turned out to be 43.6%. Moreover, the inhibition at 10 µM under setting [3] came to 66.4%. For the same molecule, under setting [4], the inhibition at 30 µM was 85.2%.

In the case of `N#Cc1ccc(S(=O)(=O)NCc2ccc(C(c3c(O)c4c(oc3=O)CCCCCC4)C3CC3)o2)cc1` (centres unmarked) [Example 391], the inhibition at 3.3 µM under setting [2] was 28.3%. Further, the inhibition at 10 µM under setting [3] was determined as 59.1%. Also, the inhibition at 30 µM under setting [4] worked out at 84.2%.

For `N#Cc1ccc(S(=O)(=O)NCc2ccc(C(c3c(O)c4c(oc3=O)CCCCCC4)C3CC3)s2)cc1` (centres unmarked) [Example 392], the inhibition at 1.1 µM under setting [1] is 11.5%. The inhibition at 3.3 µM under setting [2] is 47%. Under setting [3], the inhibition at 10 µM is 77.6%. Besides, under setting [4], the inhibition at 30 µM worked out at 99.7%.

For `O=c1oc2c(c(O)c1C(c1ccc(CNS(=O)(=O)c3ccc(F)cc3)s1)C1CC1)CCCCCC2` (centres unmarked) [Example 393], under setting [2], the inhibition at 3.3 µM came to 37.5%. The inhibition at 10 µM under setting [3] was 66.3%. The inhibition at 30 µM under setting [4] was 89.8%.

With `CCCCOc1ccc(S(=O)(=O)Nc2cccc(C(c3c(O)c4c(oc3=O)CCCCCC4)C3CC3)c2)cc1` (centres unmarked) [Example 406, 4-Butoxy-N-[3-[cyclopropyl(5,6,7,8,9,10-hexahydro-4-hydroxy-2-oxo-2H-cycloocta[b]pyran-3-yl)methyl]phenyl]-benzenesulfonamide], the “HIV-1 Protease % Inhib” value runs as follows: (dose 1.100 uM) 87.61%; (dose 3.300 uM) 85.17%; (dose 10.000 uM) 97.39%; (dose 30.000 uM) 97.21%. In addition, the inhibition at 0.123 µM under setting [5] turned out to be 37.1%. Under setting [6], the inhibition at 0.37 µM came out at 69.4%.
